Data reported in ChEMBL document CHEMBL3880384, “2-Phenylquinoxalines as inhibitors for MPP1” (2006).
Calls of active or inactive are those of the source. No cut-off for these calls is given here.

Molecular target: Kinesin-like protein KIF20B (Homo sapiens) (UniProt Q96Q89)
Test: Inhibition of MPP1 in human HeLaS3 cells assessed as induction of binucleate phenotype after 18 hrs
Type: cell-based
Conditions: HeLa S3

Chain of Kinesin-like protein KIF20B (Homo sapiens) (Q96Q89 whole entry): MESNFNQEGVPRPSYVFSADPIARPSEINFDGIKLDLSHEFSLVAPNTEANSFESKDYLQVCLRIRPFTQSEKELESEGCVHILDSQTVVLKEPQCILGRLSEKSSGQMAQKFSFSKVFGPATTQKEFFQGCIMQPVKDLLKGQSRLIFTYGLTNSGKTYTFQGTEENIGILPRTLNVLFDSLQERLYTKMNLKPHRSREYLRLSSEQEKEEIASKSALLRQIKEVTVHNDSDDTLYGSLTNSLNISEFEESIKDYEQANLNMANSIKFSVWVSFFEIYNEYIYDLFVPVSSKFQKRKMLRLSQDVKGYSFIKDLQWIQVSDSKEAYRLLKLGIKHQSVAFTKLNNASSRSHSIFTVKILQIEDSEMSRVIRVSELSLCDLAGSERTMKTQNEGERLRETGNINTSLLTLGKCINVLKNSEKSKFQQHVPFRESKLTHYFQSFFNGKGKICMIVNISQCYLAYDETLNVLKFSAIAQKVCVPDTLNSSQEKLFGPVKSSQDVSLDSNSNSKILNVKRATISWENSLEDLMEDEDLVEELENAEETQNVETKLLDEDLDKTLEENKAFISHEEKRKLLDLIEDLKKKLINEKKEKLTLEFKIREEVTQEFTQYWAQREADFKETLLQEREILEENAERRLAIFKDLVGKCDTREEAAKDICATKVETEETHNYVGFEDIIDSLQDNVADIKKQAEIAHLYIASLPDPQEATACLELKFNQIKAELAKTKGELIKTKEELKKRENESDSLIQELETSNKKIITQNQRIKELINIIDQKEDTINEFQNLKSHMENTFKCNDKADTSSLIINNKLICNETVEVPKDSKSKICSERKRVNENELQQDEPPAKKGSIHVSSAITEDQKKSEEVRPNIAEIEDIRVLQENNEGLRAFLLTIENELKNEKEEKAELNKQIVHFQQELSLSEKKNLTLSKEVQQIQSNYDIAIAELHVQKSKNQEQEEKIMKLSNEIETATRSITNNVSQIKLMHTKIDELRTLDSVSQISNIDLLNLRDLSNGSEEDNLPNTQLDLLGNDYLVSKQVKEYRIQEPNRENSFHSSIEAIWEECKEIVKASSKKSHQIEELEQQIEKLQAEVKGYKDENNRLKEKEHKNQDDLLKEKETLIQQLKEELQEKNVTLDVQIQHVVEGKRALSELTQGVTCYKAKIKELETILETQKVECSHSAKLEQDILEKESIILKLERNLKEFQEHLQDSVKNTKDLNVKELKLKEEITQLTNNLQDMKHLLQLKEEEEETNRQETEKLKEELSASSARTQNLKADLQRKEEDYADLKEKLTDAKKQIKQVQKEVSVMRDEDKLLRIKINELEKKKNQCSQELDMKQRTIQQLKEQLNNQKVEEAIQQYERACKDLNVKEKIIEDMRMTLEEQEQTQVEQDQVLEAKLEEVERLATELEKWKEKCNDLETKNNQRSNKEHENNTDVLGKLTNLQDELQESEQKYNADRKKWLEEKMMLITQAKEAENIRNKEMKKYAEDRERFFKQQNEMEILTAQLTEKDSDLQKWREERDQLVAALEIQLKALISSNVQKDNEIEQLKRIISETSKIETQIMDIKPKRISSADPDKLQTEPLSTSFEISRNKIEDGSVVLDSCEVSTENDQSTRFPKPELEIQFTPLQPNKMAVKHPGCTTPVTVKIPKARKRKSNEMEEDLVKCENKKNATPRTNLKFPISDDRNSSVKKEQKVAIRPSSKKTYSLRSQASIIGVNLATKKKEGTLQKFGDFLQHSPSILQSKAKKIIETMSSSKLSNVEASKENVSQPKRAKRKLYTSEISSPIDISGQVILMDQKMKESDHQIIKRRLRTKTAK

- inhibition: Active
Compound: FC(F)(F)c1cc(Cl)c2ncc(-c3ccc(Cl)c(Cl)c3)nc2c1
